The record followed here is patent US20150038430A1, “THERAPEUTIC PEPTIDOMIMETIC MACROCYCLES” (AILERON Therapeutics, Inc., priority 2008, published 2015).

Numbered stars: 1 amine (or outer) side, 2 acyl side, 3 side chain; on linkers, the order of the positions; unused ones are H or OH. Bridge positions count the residues as written; N and C are the ends. Square brackets hold non-standard residues; d marks the D form. Peptide text beside a SMILES is read from it. ξ: configuration not given here. ξαMeNle(6-ylidene) = CC(CCCC=[*:3])(N[*:1])C(=O)[*:2]; Nle = CCCC[C@H](N)C(=O)O A value given as a limit tells only on which side of the number the result lay.

Assay [1] addresses Mcl-1. The assay can be described thus: Kd, μM | Mcl-1. The source says:
(§1) Table printed on a drawing sheet, Figure 27
Head of the field: Kd, μM | Mcl-1
(§2) First copying reader's note: The last row (ABT-737) is a small-molecule comparator; the three plots above the table are not copied.
Where the first naming reader finds the target: head: Kd, μM | Mcl-1

Assay [2] has as its target Bcl-2. The assay can be described thus: Kd, μM | Bcl-2.
Source text: as §1
Head of the field: Kd, μM | Bcl-2
as §2
Where the first naming reader finds the target: head: Kd, μM | Bcl-2

Assay [3] concerns MCF7. The assay can be described thus: MTT cell viability assay, MCF7. Format: cell-based, human. The settings on record: 20 μM, MTT 48 hrs, FIG. 1. As to the method:
(§3) Cell viability assays shown in FIGS. 1-32 were performed according to the following protocol. Tumor cell lines were grown in specific serum-supplemented media (growth media) as necessary. A day prior to the initiation of the study, cells were plated at optimal cell density (15,000 to 25,000 cells/well) in 200 μl growth media in microtiter plates. The next day, cells were washed twice in serum-free/phenol red-free RPMI complete media (assay buffer) and a final volume of 100 μl assay buffer was added to each well. Human peripheral blood lymphocytes (hPBLs) were isolated from Buffy coats (San Diego Blood Bank) using Ficoll-Paque gradient separation and plated on the day of the experiment at 25,000 cells/well.
(§4) Peptidomimetic macrocycles were diluted from 1 mM stocks (100% DMSO) in sterile water to prepare 400 μM working solutions. The peptidomimetic macrocycles and controls were then diluted 10 or […] or alternatively serially two-fold diluted in assay buffer in dosing plates to provide concentrations of either 40 and 20 μM or between 1.2 and 40 μM, respectively. […]
(§5) Towards the end of the 4 hour incubation time, 22 μl FBS was added to each well for a total concentration of 10% FBS. […] At the end of the incubation period, MTT assay was performed according to manufacturer's instructions (Sigma, catalog #M2128) and absorbance was measured at 560 nm using Dynex Opsys MR Plate reader. […]
A general note: Formazan colour is commonly taken as a measure of viable cells.

Assay [4] relates to A-549. The assay can be described thus: MTT cell viability assay, A-549. The format is cell-based, human. As to conditions: 20 μM, MTT 48 hrs, FIG. 1. As to the method:
as §3, §4, §5

The subject of assay [5] is NCI-H220. The assay can be described thus: MTT cell viability assay, NCI-H220. The format is cell-based, human. As to conditions: 20 μM, MTT 48 hrs, FIG. 1. On the procedure:
as §3, §4, §5

Assay [6] deals with SEMK2 human leukemia xenograft. Nature of the assay: SEMK2 human leukemia xenograft model. The format is in vivo, NOD-SCID mice. As to conditions: daily tail vein injection, 3, 10 or 30 mg/Kg/day. On the procedure: To determine the anti-oncogenic activity of peptidomimetic macrocycles of the invention in vivo, the compounds are, for example, given alone (IP, IV, SC, PO, by inhalation or nasal routes) or in combination with sub-optimal doses of relevant chemotherapy (e.g., cyclophosphamide, doxorubicin, etoposide). In one example, 5×10^6 SEMK2 cells (established from the bone marrow of a patient with acute lymphoblastic leukemia) that stably express luciferase are injected by tail vein in NOD-SCID, SCID-beige or NOD.IL2rg KO mice 3 hrs after they have been subjected to total body irradiation. Non-radiated mice may also be used for these studies. If left untreated, this form of leukemia is fatal in 3 weeks in this model. The leukemia is readily monitored, for example, by injecting the mice with D-luciferin (60 mg/kg) and imaging the anesthetized animals (e.g., Xenogen In Vivo Imaging System, Caliper Life Sciences, Hopkinton, Mass.). Total body bioluminescence is quantified by integration of photonic flux (photons/sec) by Living Image Software (Caliper Life Sciences, Hopkinton, Mass.). […] Optionally, the mice are imaged throughout the experiment every other day and survival monitored daily for the duration of the experiment. […]

The test system of assay [7] is activated hPBLs. The assay can be described thus: BrdU cell proliferation assay. As to conditions: hPBLs activated by PMA+ionomycin+LPS; 5 or 20 μM, 48 hrs; compared with 1 μM Rapamycin. Format: cell-based, human. As to the method:
[…] 1 μM Rapamycin was used as a positive control to inhibit BrdU incorporation. BrdU incorporation was assayed by ELISA according to manufacturer's instructions (Roche, catalog number 11444611001).

The test system of assay [8] is NCI-H128. Nature of the assay: MTT cell viability assay, NCI-H128. Format: cell-based, human. The settings on record: 20 μM, MTT 48 hrs, FIG. 1. As to the method:
as §3, §4, §5

A word on the Kd: it is a measure of binding affinity in units of concentration. With `CCCC[C@H](NC(=O)C1(C)CCCC=CCCCC(C)(NC(=O)[C@H](C)NC(=O)[C@H](CC(C)C)NC(=O)[C@H](Cc2c[nH]cn2)NC(=O)[C@H](CCCNC(=N)N)NC(=O)[C@H](C)NC(=O)[C@@H](NC(=O)[C@H](CC(N)=O)NC(=O)[C@H](CCCNC(=N)N)NC(=O)[C@@H](NC(=O)[C@@H](NC(=O)[C@H](CC(=O)O)NC(C)=O)[C@@H](C)CC)[C@@H](C)CC)[C@@H](C)CC)C(=O)N[C@@H](C(C)C)C(=O)NCC(=O)N[C@@H](CC(=O)O)C(=O)N1)C(=O)N[C@@H](CC(=O)O)C(=O)N[C@@H](CCCNC(=N)N)C(=O)N[C@@H](CO)C(=O)N[C@H](C(N)=O)[C@@H](C)CC` (some centres unmarked) [SP-1] (Ac-DIIRNIARHLA[ξαMeNle(6-ylidene)]VGD[ξαMeNle(6-ylidene)][Nle]DRSI-NH2; staple 12-16), the figures for the dissociation constant (Kd) in assay [1] and in assay [2] were less than 0.1 µM and 1 µM, respectively. Moreover, in assay [3], the “sensitivity of MCF7 (breast cancer)” value was “resistant”. Besides, the “sensitivity of A-549 (NSCLC)” value in assay [4] is recorded as “resistant”. Also, the “apoptosis of NCI-H220 (SCLC)” value in assay [5] is “induced apoptosis”. In addition, the “tumor burden / tumor progression (total body bioluminescence)” value in assay [6] is “decreases tumor burden”. In assay [7], the “blocking the proliferation of activated hPBLs (BrdU incorporation)” value was “as effective as rapamycin”. Besides, the “apoptosis of NCI-H128 (SCLC)” value in assay [8] is “induced apoptosis”.
